# Results reported in patent publication US20080089859A1, “ADMINISTRATION OF SLEEP RESTORATIVE AGENTS” (priority 2001, published 2008).
# Key:
# [1] = test system: patients with Multiple Sclerosis (MS); conditions: for MS activity: three patients, pramipexole and/or lorazepam added; for Tolerability: human, in vivo
# Procedure: Eight patients with Multiple Sclerosis (MS) were treated according to the present invention.
# patient with pseudogout = assay: Treatment of a patient with pseudogout; type: in vivo, human; conditions: one patient on colchicine; lorazepam 2 mg qhs added for sleep
# [2] = test system: patients with Systemic Lupus Erythematosis; assay: Treatment of patients with Systemic Lupus Erythematosis; type: in vivo, human
# Procedure: Patients with Systemic Lupus Erythematosis were treated according to the present invention.
# The dose range of pramipexole ranged from 2-6 mg qhs.
# [3] = test system: patients with Behcet's Syndrome; assay: Treatment of patients with Behcet's Syndrome; type: in vivo, human; conditions: for Discontinuation of prednisone: single patients, lorazepam 2 mg qhs (patient 1), pramipexole added to lorazepam (patient 2), clonazepam 2 mg qhs (patient 3); for Symptoms observed in the patient: second patient (pramipexole added to lorazepam), third patient (clonazepam 2 mg qhs)
# Procedure: Three patients with Behcet's Syndrome were treated according to the present invention. For one patient, prednisone administration was supplemented with lorazepam at 2 mg qhs. […] For a second patient, lorazepam at 2 mg qhs was co-admnistered with Dapsone and prednisone.
# [4] = test system: patients having rheumatoid arthritis; assay: Rheumatoid arthritis patients on Infliximab given sleep restorative agents; type: in vivo, human; conditions: lorazepam 1-2 mg qhs or pramipexole
# [5] = test system: rheumatoid arthritis (Ra) and Psoriatic arthritis (PsA) patients; assay: Study of Example 1 continued to 18 months (Example 2); type: in vivo, human; conditions: for Response of improved patients after adding the agent to their treatment: 12 month to 18 month time point, on Etanercept
# Text: The study of Example 1 was continued to 18 months. […] Fibromyalgia was a surrogate for a lack of deep (e.g., stage IV) restorative sleep.
# JC refers to the number of swollen tender joints.
# [6] = test system: patients with Ankylosing Spondylitis; assay: Treatment of patients with Ankylosing Spondylitis; type: in vivo, human; conditions: six patients on Methotrexate, steroids 2-10 mg qd and Etanercept; lorazepam 1-2 mg qhs or pramipexole 0.5-3.0 mg qhs
# Procedure: Six patients with Ankylosing Spondylitis were treated according to the present invention. […] The patients were administered lorazepam 1-2 mg qhs or pramipexole 0.5-3.0 mg qhs.
# [7] = test system: patients having rheumatoid arthritis; assay: Rheumatoid arthritis patients on Leflunamide given sleep restorative agents; type: in vivo, human; conditions: lorazepam, clonazepam and/or pramipexole
# [8] = test system: patient with chronic gout; assay: Treatment of a patient with chronic gout and severe synovitis; type: in vivo, human; conditions: for Discontinuation of other medications / Prednisone dose reached: one patient; for Discontinuation of other medications: pramipexole and lorazepam added together; for Prednisone dose reached: colchicine, hydroxychloroquine and Etanercept added together, before sleep agents
# Procedure: Adding colchicine, hydroxychloroquine and Etanercept only allowed them to decrease prednisone to 15 mg qd.
# [9] = test system: patients with Palindromic Rheumatism; assay: Treatment of patients with Palindromic Rheumatism; type: in vivo, human; conditions: five patients; clonazepam 2 mg, pramipexole 1-6 mg and/or lorazepam 2 mg qhs
# Procedure: Five patient with Palindromic Rheumatism were treated according to the present invention. After adding clonazepam 2 mg, pramipexole 1-6 mg and/or lorazepam 2 mg qhs to their treatment, the patients reported that episodic severe pain decreased dramatically, by 90%.
# [10] = test system: patients with Sjogren's Syndrome; assay: Treatment of patients with dry eyes and mouth from Sjogren's Syndrome; type: in vivo, human; conditions: Lorazepam 1-2 mg po qhs, Pramipexole later 0.5-4.0 mg qhs; for Resolution of dryness (eyes and mouth): 3 patients on Hydroxychloroquine 200 mg po bid, nearly complete resolution in third patient; for Hydroxychloroquine sparing: 3 patients
# Procedure: Three patients with dry eyes and mouth from Sjogren's Syndrome, were treated with lorazepam or pramipexole. […] Lorazepam was administered at 1-2 mg po qhs. Pramipexole was later administered at 0.5-4.0 mg qhs.
# [11] = test system: patients having rheumatoid arthritis; assay: Rheumatoid arthritis patients on prednisone given Ropinirole; type: in vivo, human; conditions: Ropinirole 2-20 mg qhs
# [12] = test system: patient with Reiter's Syndrome; conditions: one patient on Etanercept; pramipexole up to 4 mg qhs
# [13] = test system: patient with ocular and articular Sarcoidosis; conditions: one patient steroid-dependent for two years; Pramipexole to 3 mg qhs
# Text: A patient with ocular and articular Sarcoidosis was steroid-dependent for two years.
smiles,measurement,setting,value
O=C1Nc2ccc(Cl)cc2C(c2ccccc2Cl)=NC1O (stereo not shown) [Lorazepam],Sleep and fibromyalgia,"[1]; one patient flaring uncontrollably, Lorazepam 2 mg qhs",still exhibited poor sleep and fibromyalgia
same,MS activity,[1],MS was quiet for over three years
same,Flares,patient with pseudogout,no flares for three years
same,Prednisone dose reached,"[2]; patient steroid-dependent at 20 mg qd on leflunamide, lorazepam 2 mg qhs added",15 mg qhs
same,Discontinuation of Dapsone,"[3]; second patient, lorazepam 2 mg qhs with Dapsone and prednisone",Dapsone could be discontinued without further seizures
same,Discontinuation of prednisone,[3],able to d/c prednisone in two months
same,Infliximab efficacy,[4],increased efficacy of Infliximab
same,Response of improved patients after adding the agent to their treatment,[5],did much better from the 12 month time point to the 18 month time point
same,Discontinuation of Methotrexate and steroids,[6],All six patients were able to discontinue Methotrexate and steroids
same,Leflunamide efficacy,[7],increased Leflunamide efficacy
same,Discontinuation of other medications,[8],"allowed the patient to discontinue steroids, colchicine, hydroxychoroquine, and narcotics"
same,Decrease of episodic severe pain,[9],90%
same,Other medications stopped,[9],"off narcotics, steroids, Etanercept, Infliximab, leflunamide, Azothioprine, sulfasalazine, hydroxychloroquine and colchicine"
same,Resolution of dryness (eyes and mouth),[10],Complete resolution of the dryness in 2 of 3 patients
same,Hydroxychloroquine sparing,[10],One daily dose of Hydroxychloroquine was discontinued and benefit maintained
O=C1CN=C(c2ccccc2Cl)c2cc([N+](=O)[O-])ccc2N1 [Clonazepam],Symptoms observed in the patient,[3],less fatigue and no further mouth ulcers were observed
same,Discontinuation of prednisone,[3],able to discontinue prednisone 10 mg qd
same,Response of improved patients after adding the agent to their treatment,[5],did much better from the 12 month time point to the 18 month time point
same,Leflunamide efficacy,[7],increased Leflunamide efficacy
same,Decrease of episodic severe pain,[9],90%
same,Other medications stopped,[9],"off narcotics, steroids, Etanercept, Infliximab, leflunamide, Azothioprine, sulfasalazine, hydroxychloroquine and colchicine"
"CCCN(CCC)CCc1cccc2c1CC(=O)N2.Cl [Ropinirole, 4-[2-(dipropylamino)-ethyl]-1,3-dihydro-2H-indol-2-one mono hydrochloride]",Tolerability,[1],intolerant
same,Prednisone dose,[11],able to lower their prednisone doses
"CCCNC1CCc2nc(N)sc2C1 (stereo not shown) [Pramipexole, 2-amino-4,5,6,7-tetrahydro-6-(propylamino)benzo-thiazole]",Discontinuation of other medications,[12],"able to discontinue methotrexate, steroids 5-10 mg qd, and narcotics"
same,Response of dactylitis and synovitis,[12],dactylitis and synovitis responded better to Etanercept
same,Tolerability,[1],intolerant
same,MS activity,[1],MS was quiet for over three years
same,Decrease or d/c of prednisone,"[2]; 8 patients, pramipexole 2-6 mg qhs",80%
same,Prednisone dose reached,"[2]; person with life threatening leukopenia, steroids 60 mg qd before, Pramipexole increased to 3.5 mg q hs over 3 months",5 mg qd
same,Symptoms noted,[2]; same patient after pramipexole 3-4.5 mg qhs,"much less fatigue, anemia, joint pain, and had stable kidney function"
same,Prednisone dose reached,"[2]; same patient, pramipexole 3-4.5 mg qhs added, first time in 7 years",5 mg qd
same,Complete blood count,"[2]; same person, after Pramipexole",maintaining normal complete blood count
same,Symptoms observed in the patient,[3],"No fatigue, mouth ulcers, skin vasculitis, hoarse voice or seizures were observed"
same,Discontinuation of prednisone,[3],prednisone 5 mg qd could be discontinued
same,Infliximab efficacy,[4],increased efficacy of Infliximab
same,Response of improved patients after adding the agent to their treatment,[5],did much better from the 12 month time point to the 18 month time point
same,Expected prednisone discontinuation after conversion back to inactive FM,"[5]; one patient who developed FM and needs prednisone 10 mg qd, planned treatment",expected to allow them to discontinue prednisone
same,Discontinuation of Methotrexate and steroids,[6],All six patients were able to discontinue Methotrexate and steroids
same,Leflunamide efficacy,[7],increased Leflunamide efficacy
same,Discontinuation of other medications,[8],"allowed the patient to discontinue steroids, colchicine, hydroxychoroquine, and narcotics"
same,Decrease of steroids with disease still controlled,[13],90%
same,Decrease of episodic severe pain,[9],90%
same,Other medications stopped,[9],"off narcotics, steroids, Etanercept, Infliximab, leflunamide, Azothioprine, sulfasalazine, hydroxychloroquine and colchicine"
same,Resolution of dryness (eyes and mouth),[10],Complete resolution of the dryness in 2 of 3 patients
same,Hydroxychloroquine sparing,[10],One daily dose of Hydroxychloroquine was discontinued and benefit maintained
COc1cc2c(c(OC)c1OC)-c1ccc(OC)c(=O)cc1[C@@H](NC(C)=O)CC2 [colchicine],Flares,patient with pseudogout,flare ups were previously uncontrolled
same,Prednisone dose reached,[8],15 mg qd
CCN(CCO)CCCC(C)Nc1ccnc2cc(Cl)ccc12 (stereo not shown) [hydroxychloroquine],Prednisone dose reached,[8],15 mg qd
C[C@]12C=CC(=O)C=C1CC[C@@H]1[C@@H]2C(=O)C[C@@]2(C)[C@H]1CC[C@]2(O)C(=O)CO [prednisone],Control of severe synovitis,[8]; prednisone 10-40 mg qd for two months,uncontrolled
